Experimental data from the NIST ThermoML archive (doi:10.1016/j.jct.2009.11.010).

Experiments:
[1] = Liquid, Vibrating tube method
[2] = molar heat capacity at saturation pressure; details: Liquid

c1ccc2nc3ccccc3cc2c1 [acridine]
Details	mass density [kg/m3]	molar heat capacity [J/K/mol]
[1], 423.15 K	1064.9	–
[1], 448.15 K	1043.7	–
[1], 473.15 K	1023.9	–
[1], 498.15 K	1005.1	–
[1], 523.15 K	985.4	–
[1], 548.15 K	964.8	–
[2], 460 K	–	343.6
[2], 480 K	–	352.2
[2], 500 K	–	360.6
[2], 520 K	–	368.7
[2], 540 K	–	376.4
[2], 560 K	–	383.8
[2], 580 K	–	390.8
[2], 600 K	–	397.3
